From paper PMC11591096, “Hit Identification and Functional Validation of Novel Dual Inhibitors of HDAC8 and Tubulin Identified by Combining Docking and Molecular Dynamics Simulations” (Antioxidants, 2024)

Target: T1, HDAC8 (Homo sapiens, UniProt Q9BY41)
T1 construct: purchased enzyme (VinciBiochem)
T1 sequence (Q9BY41 1-377): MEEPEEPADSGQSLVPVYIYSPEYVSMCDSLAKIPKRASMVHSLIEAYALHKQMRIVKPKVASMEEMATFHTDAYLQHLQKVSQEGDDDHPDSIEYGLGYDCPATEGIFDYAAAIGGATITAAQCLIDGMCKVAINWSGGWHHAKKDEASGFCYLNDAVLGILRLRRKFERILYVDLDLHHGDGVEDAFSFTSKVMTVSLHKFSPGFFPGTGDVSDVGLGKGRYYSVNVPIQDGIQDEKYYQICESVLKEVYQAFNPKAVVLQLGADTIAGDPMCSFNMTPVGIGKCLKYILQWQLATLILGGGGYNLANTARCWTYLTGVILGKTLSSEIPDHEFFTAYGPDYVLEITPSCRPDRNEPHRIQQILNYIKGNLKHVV
Test: HDAC-Glo I/II bioluminogenic deacetylase assay
Format: biochemical
Settings: read-out: HDAC8IC50 (μM) ^a
Text: HDAC-Glo I/II bioluminogenic deacetylase assay on HDAC8

SMILES: Cc1cc(OCC(=O)N2CCC(C(N)=O)CC2)c2c(C)c(Cc3ccccc3)c(=O)oc2c1 [CNP0217284]
- IC50: > 300 µM
